Assay results: patent publication US10065990B2, “Cyclic peptide compound, and preparation method, pharmaceutical composition and use thereof” (HANGZHOU GUANYU BIO-MEDICAL CO., LTD, priority 2013, dated 2018)
Where two headings read alike, the source gives them in different places.

What was measured:
HDAC7 = molecular target: T1, HDAC7 (Homo sapiens, UniProt Q8WUI4); assay: HDAC biochemical activity measurement (fluorescent substrate deacetylation);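 on all read-outs here: fluorogenic deacetylation assay using acetyl-lysine substrate at 20 µM, enzyme and compound incubated 30 min at 37 °C, then developer added, fluorescence read at 360/460 nm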; details: for IC50 HDAC7: 37° C. 30 minutes
T1 sequence (Q8WUI4 1-952): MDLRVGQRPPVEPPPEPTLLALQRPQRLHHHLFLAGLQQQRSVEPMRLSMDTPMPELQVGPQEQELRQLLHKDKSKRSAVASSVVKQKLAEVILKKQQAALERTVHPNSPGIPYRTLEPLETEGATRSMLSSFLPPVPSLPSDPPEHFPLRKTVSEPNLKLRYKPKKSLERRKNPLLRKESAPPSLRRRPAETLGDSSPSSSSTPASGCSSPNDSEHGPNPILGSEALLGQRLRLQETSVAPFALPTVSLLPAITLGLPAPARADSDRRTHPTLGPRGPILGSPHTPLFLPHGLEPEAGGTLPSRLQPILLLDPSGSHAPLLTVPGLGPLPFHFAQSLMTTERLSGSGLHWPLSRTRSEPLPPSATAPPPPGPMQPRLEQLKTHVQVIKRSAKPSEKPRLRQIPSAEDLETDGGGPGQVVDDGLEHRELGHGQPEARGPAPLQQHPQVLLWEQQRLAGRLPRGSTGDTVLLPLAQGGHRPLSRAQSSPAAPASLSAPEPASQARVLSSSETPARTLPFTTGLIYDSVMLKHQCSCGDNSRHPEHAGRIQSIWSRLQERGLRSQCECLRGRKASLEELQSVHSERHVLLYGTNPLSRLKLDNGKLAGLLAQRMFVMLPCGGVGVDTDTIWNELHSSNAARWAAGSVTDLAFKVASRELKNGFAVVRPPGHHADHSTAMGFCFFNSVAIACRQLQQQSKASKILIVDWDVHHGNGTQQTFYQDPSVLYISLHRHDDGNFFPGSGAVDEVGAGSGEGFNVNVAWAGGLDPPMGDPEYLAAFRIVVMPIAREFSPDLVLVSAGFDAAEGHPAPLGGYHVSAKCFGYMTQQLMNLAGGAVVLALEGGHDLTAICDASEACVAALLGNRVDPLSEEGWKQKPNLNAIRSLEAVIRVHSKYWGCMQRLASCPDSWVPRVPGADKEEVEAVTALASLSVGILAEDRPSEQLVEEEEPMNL

[1] = tested on: A549 (human lung cancer cells); assay: MTT cancer cell growth inhibition; format: cell-based; details: Homo sapiens, A549, 72 h, MTT, 72 hours incubation, read-out: GI50 A54
Text: (§1) MTT assay principle is yellow MTT can penetrate membrane into the cell, succinic dehydrogenase of the mitochondria in living cells can make exogenous MTT reduction of insoluble in water of blue-violet acicular formazan for crystallization and deposition in the cell, crystallization can be dissolved dimethyl sulfoxide (DMSO) solution, detected its absorbance at 490 nm/570 nm wavelength by enzyme-linked immunosorbent assay, which can reflect the number of cells.
(§2) Using DMEM+10% FBS culture medium or using 1640+10% FBS culture, respectively.
(§3) a) Cells were seeded in 96-well plates with the inoculation of 1500/well, 190 μl/hole, 37° C., 5% of CO2 incubator overnight;
(§4) b) The next day each well was added 10 μl of different drugs. The final concentration of drug was 10^−5˜10^−10M, three parallel holes; 37° C., 5% CO2 culture incubator for 72 hours incubation;
(§5) c) Per well was added 20 μl 5 mg/ml of MTT, 37° C., 5% CO2 culture incubator for 4 hours incubation;
(§6) d) The supernatant was discarded. Each well was added 100 μl of DMSO and oscillation;
(§7) e) 570 nm readings. Calculate cell viability. GI50 calculation based on the results.

[2] = tested on: BGC-823 (human gastric cancer cells); assay: MTT cancer cell growth inhibition; format: cell-based; details: Homo sapiens, BGC-823, 72 h, MTT, 72 hours incubation, read-out: GI50 BG
Text: as §1, §2, §3, §4, §5, §6, §7

[3] = tested on: Bel-7402 (human hepatoma cells); assay: MTT cancer cell growth inhibition; format: cell-based; details: Homo sapiens, Bel-7402, 72 h, MTT, 72 hours incubation, Bel-7402 cells; read-out: GI50 Bel-7402
Text: as §1, §2, §3, §4, §5, §6, §7

[4] = tested on: DU145 (human prostate cancer cells); assay: MTT cancer cell growth inhibition; format: cell-based; details: Homo sapiens, DU-145, 72 h, MTT, 72 hours incubation, read-out: GI50 Du1
Text: as §1, §2, §3, §4, §5, §6, §7

[5] = tested on: H1975 (non-small cell lung adenocarcinoma); assay: MTT cancer cell growth inhibition; format: cell-based; details: Homo sapiens, NCI-H1975, 72 h, MTT, 72 hours incubation, H1975 cells; read-out: GI50 H1975
Text: as §1, §2, §3, §4, §5, §6, §7

[6] = tested on: HCC827 (human non-small cell lung cancer cells); assay: MTT cancer cell growth inhibition; format: cell-based; details: Homo sapiens, HCC827, 72 h, MTT, 72 hours incubation, HCC827 cells; read-out: GI50 HCC827
Text: as §1, §2, §3, §4, §5, §6, §7

[7] = tested on: HT1080 (human fibrosarcoma cells); assay: MTT cancer cell growth inhibition; format: cell-based; details: Homo sapiens, HT-1080, 72 h, MTT, 72 hours incubation, read-out: GI50 HT1
Text: as §1, §2, §3, §4, §5, §6, §7

[8] = tested on: Hela (human cervical cancer cells); assay: MTT cancer cell growth inhibition; format: cell-based; details: Homo sapiens, HeLa, 72 h, MTT, 72 hours incubation, read-out: GI50 Hela
Text: as §1, §2, §3, §4, §5, §6, §7

[9] = tested on: Huh-7 (human hepatoma cells); assay: MTT cancer cell growth inhibition; format: cell-based; details: Homo sapiens, Huh-7, 72 h, MTT, 72 hours incubation, Huh-7 cells; read-out: GI50 Huh-7
Text: as §1, §2, §3, §4, §5, §6, §7

[10] = tested on: K562 (human leukemia cells); assay: MTT cancer cell growth inhibition; format: cell-based; details: Homo sapiens, K562, 72 h, MTT, 72 hours incubation, K562 cells; read-out: GI50 K562
Text: as §1, §2, §3, §4, §5, §6, §7

[11] = tested on: KBM-5 (human chronic myelogenous leukemia); assay: MTT cancer cell growth inhibition; format: cell-based; details: Homo sapiens, KBM5, 72 h, MTT, 72 hours incubation, KBM-5 cells; read-out: GI50 KBM-5
Text: as §1, §2, §3, §4, §5, §6, §7

[12] = tested on: KBM5-T315I (human chronic myelogenous leukemia); assay: MTT cancer cell growth inhibition; format: cell-based; details: Homo sapiens, 72 h, MTT, 72 hours incubation, KBM5-T315I cells; read-out: GI50 KBM5-T315I
Text: as §1, §2, §3, §4, §5, §6, §7

[13] = tested on: MCF-7 (human breast cancer cells); assay: MTT cancer cell growth inhibition; format: cell-based; details: Homo sapiens, MCF7, 72 h, 72 hours incubation, read-out: GI50 MCF
Text: as §1, §2, §3, §4, §5, §6, §7

[14] = tested on: MDA-MB-231 (breast cancer cells); assay: MTT cancer cell growth inhibition; format: cell-based; details: Homo sapiens, MDA-MB-231, 72 h, read-out: GI50 MDA-MB-231, MTT, 72 hours incubation, MDA-MB-231 cells
Text: as §1, §2, §3, §4, §5, §6, §7

[15] = tested on: MOLT-4 (human acute lymphoblastic leukemia cells); assay: MTT cancer cell growth inhibition; format: cell-based; details: Homo sapiens, MOLT-4, 72 h, MTT, 72 hours incubation, read-out: GI50 Mol
Text: as §1, §2, §3, §4, §5, §6, §7

[16] = tested on: N-87 (human gastric cancer cells); assay: MTT cancer cell growth inhibition; format: cell-based; details: Homo sapiens, 72 h, MTT, 72 hours incubation, N-87 cells; read-out: GI50 N-87
Text: as §1, §2, §3, §4, §5, §6, §7

[17] = tested on: PANC-1 (Pac-1, human pancreatic cancer cells); assay: MTT cancer cell growth inhibition; format: cell-based; details: Homo sapiens, PANC-1, 72 h, MTT, 72 hours incubation, read-out: GI50 PAN
Text: as §1, §2, §3, §4, §5, §6, §7

[18] = tested on: SGC-7901 (human gastric cancer cells); assay: MTT cancer cell growth inhibition; format: cell-based; details: Homo sapiens, SGC-7901, 72 h, MTT, 72 hours incubation, SGC-7901 cells; read-out: GI50 SGC-7901
Text: as §1, §2, §3, §4, §5, §6, §7

[19] = tested on: U937 (human leukemia cells); assay: MTT cancer cell growth inhibition; format: cell-based; details: Homo sapiens, U-937, 72 h, MTT, 72 hours incubation, read-out: GI50 U93
Text: as §1, §2, §3, §4, §5, §6, §7

[20] = tested on: lncap (prostate cancer cells); assay: MTT cancer cell growth inhibition; format: cell-based; details: Homo sapiens, LNCaP, 72 h, MTT, 72 hours incubation, read-out: GI50 lnca
Text: as §1, §2, §3, §4, §5, §6, §7

CC(C)=C1NC(=O)c2cccc(n2)CNC(=O)C[C@@H](/C=C/CCS)OC(=O)[C@H](C(C)C)NC1=O [Compound 135]
IC50 HDAC7 (HDAC7): no activity | GI50 [1]: 90 nM | GI50 [2]: 50 nM | GI50 [3]: 39 nM | GI50 [4]: 50 nM | GI50 [5]: 79 nM | GI50 [6]: 93 nM | GI50 [7]: 90 nM | GI50 [8]: 70 nM | GI50 [9]: 87 nM | GI50 [10]: 33 nM | GI50 [11]: 11 nM | GI50 [12]: 51 nM | GI50 [13]: 50 nM | GI50 [14]: 41 nM | GI50 [15]: 90 nM | GI50 [16]: 26 nM | GI50 [17]: 50 nM | GI50 [18]: 44 nM | GI50 [19]: 90 nM | GI50 [20]: 70 nM

C/C=C1\NC(=O)c2ccc(SCC)c(n2)CNC(=O)C[C@@H](/C=C/CCSC(=O)CCCCCCC)OC(=O)[C@H](C(C)C)NC1=O [Compound 249]
IC50 (μM) HDAC7 (HDAC7): no activity | GI50 ([1]; A549 cells): 50 nM | GI50 ([2]; BGC-823 cells): 30 nM | GI50 [3]: 41 nM | GI50 ([4]; DU145 cells): 30 nM | GI50 [5]: 76 nM | GI50 [6]: 23 nM | GI50 ([7]; HT1080 cells): 40 nM | GI50 ([8]; Hela cells): 80 nM | GI50 [9]: 43 nM | GI50 [10]: 72 nM | GI50 [11]: 47 nM | GI50 [12]: 27 nM | GI50 ([13]; MCF-7 cells): 70 nM | GI50 [14]: 29 nM | GI50 ([15]; MOLT-4 cells): 50 nM | GI50 [16]: 45 nM | GI50 ([17]; PANC-1 cells): 20 nM | GI50 [18]: 33 nM | GI50 ([19]; U937 cells): 70 nM | GI50 ([20]; lncap cells): 40 nM

C/C=C1\NC(=O)c2cc(F)cc(n2)CNC(=O)C[C@@H](/C=C/CCS)OC(=O)[C@H](Cc2ccc(O)cc2)NC1=O [Compound 129]
IC50 HDAC7 (HDAC7): no activity | GI50 [1]: 80 nM | GI50 [2]: 30 nM | GI50 [3]: 41 nM | GI50 [4]: 30 nM | GI50 [5]: 33 nM | GI50 [6]: 22 nM | GI50 [7]: 130 nM | GI50 [8]: 40 nM | GI50 [9]: 38 nM | GI50 [10]: 42 nM | GI50 [11]: 35 nM | GI50 [12]: 42 nM | GI50 [13]: 30 nM | GI50 [14]: 41 nM | GI50 [15]: 60 nM | GI50 [16]: 21 nM | GI50 [17]: 50 nM | GI50 [18]: 33 nM | GI50 [19]: 10 nM | GI50 [20]: 70 nM

C/C=C1\NC(=O)c2cc(SC)cc(n2)CNC(=O)C[C@@H](/C=C/CCSC(C)=O)OC(=O)[C@@H](C)NC1=O [Compound 221]
IC50 HDAC7 (HDAC7): no activity | GI50 ([1]; A549 cells): 20 nM | GI50 ([2]; BGC-823 cells): 50 nM | GI50 [3]: 57 nM | GI50 ([4]; DU145 cells): 50 nM | GI50 [5]: 35 nM | GI50 [6]: 41 nM | GI50 ([7]; HT1080 cells): 80 nM | GI50 ([8]; Hela cells): 30 nM | GI50 [9]: 41 nM | GI50 [10]: 74 nM | GI50 [11]: 36 nM | GI50 [12]: 41 nM | GI50 ([13]; MCF-7 cells): 80 nM | GI50 [14]: 43 nM | GI50 ([15]; MOLT-4 cells): 70 nM | GI50 [16]: 65 nM | GI50 ([17]; PANC-1 cells): 50 nM | GI50 [18]: 26 nM | GI50 ([19]; U937 cells): 70 nM | GI50 ([20]; lncap cells): 20 nM
